Experimental data from the NIST ThermoML archive (doi:10.1021/je200811n).
± gives the expanded uncertainty stated by the source.

Settings: Hot wire method

F/C=C/C(F)(F)F [trans-1,3,3,3-tetrafluoropropene]
Settings | thermal conductivity [W/m/K]
293.73 K, 303 kPa, Gas | 0.01311 ± 0.00045
293.77 K, 95 kPa, Gas | 0.0133 ± 0.00045
293.85 K, 231 kPa, Gas | 0.01317 ± 0.00045
293.9 K, 400 kPa, Gas | 0.01318 ± 0.00045
294.04 K, 155 kPa, Gas | 0.01319 ± 0.00045
294.06 K, 345 kPa, Gas | 0.01312 ± 0.00045
294.27 K, 95 kPa, Gas | 0.01329 ± 0.00045
294.45 K, 343 kPa, Gas | 0.01318 ± 0.00045
301.02 K, 868 kPa, Liquid | 0.07405 ± 0.00082
301.09 K, 873 kPa, Liquid | 0.07375 ± 0.00082
301.25 K, 21041 kPa, Liquid | 0.08609 ± 0.00095
301.27 K, 15433 kPa, Liquid | 0.08285 ± 0.00091
301.28 K, 15438 kPa, Liquid | 0.08293 ± 0.001
301.32 K, 10268 kPa, Liquid | 0.07996 ± 0.00088
301.32 K, 21030 kPa, Liquid | 0.08586 ± 0.00094
301.33 K, 5341 kPa, Liquid | 0.07696 ± 0.00085
301.35 K, 15435 kPa, Liquid | 0.08267 ± 0.00092
301.36 K, 15436 kPa, Liquid | 0.08267 ± 0.00092
301.39 K, 877 kPa, Liquid | 0.07371 ± 0.00082
301.4 K, 10267 kPa, Liquid | 0.07978 ± 0.00088
301.41 K, 810 kPa, Liquid | 0.07351 ± 0.00082
301.41 K, 5340 kPa, Liquid | 0.07676 ± 0.00085
301.47 K, 877 kPa, Liquid | 0.07359 ± 0.00082
301.48 K, 201 kPa, Gas | 0.01405 ± 0.00048
301.5 K, 101 kPa, Gas | 0.01387 ± 0.00047
301.5 K, 812 kPa, Liquid | 0.07342 ± 0.00082
301.64 K, 15430 kPa, Liquid | 0.0828 ± 0.00091
301.69 K, 10267 kPa, Liquid | 0.07986 ± 0.00088
301.7 K, 201 kPa, Gas | 0.01393 ± 0.00047
301.71 K, 21026 kPa, Liquid | 0.08586 ± 0.00094
301.72 K, 5338 kPa, Liquid | 0.07673 ± 0.00085
301.73 K, 101 kPa, Gas | 0.01377 ± 0.00047
301.74 K, 15425 kPa, Liquid | 0.08254 ± 0.00091
301.75 K, 15438 kPa, Liquid | 0.08085 ± 0.00089
301.8 K, 875 kPa, Liquid | 0.07346 ± 0.00081
301.81 K, 10267 kPa, Liquid | 0.07952 ± 0.00088
301.82 K, 21035 kPa, Liquid | 0.08546 ± 0.00094
301.83 K, 5339 kPa, Liquid | 0.07652 ± 0.00085
301.9 K, 871 kPa, Liquid | 0.07331 ± 0.00081
301.92 K, 820 kPa, Liquid | 0.07315 ± 0.00081
301.95 K, 201 kPa, Gas | 0.01381 ± 0.00047
301.98 K, 101 kPa, Gas | 0.01368 ± 0.00046
302.06 K, 15424 kPa, Liquid | 0.08252 ± 0.00091
302.07 K, 283 kPa, Gas | 0.01426 ± 0.00048
302.13 K, 10265 kPa, Liquid | 0.07959 ± 0.00088
302.17 K, 5336 kPa, Liquid | 0.0765 ± 0.00085
302.2 K, 201 kPa, Gas | 0.01376 ± 0.00047
302.23 K, 21022 kPa, Liquid | 0.08536 ± 0.00094
302.24 K, 102 kPa, Gas | 0.01362 ± 0.00046
302.26 K, 867 kPa, Liquid | 0.07328 ± 0.00082
302.26 K, 10266 kPa, Liquid | 0.07933 ± 0.00088
302.28 K, 278 kPa, Gas | 0.01416 ± 0.00048
302.28 K, 835 kPa, Liquid | 0.07308 ± 0.00081
302.31 K, 5328 kPa, Liquid | 0.07627 ± 0.00084
302.38 K, 21010 kPa, Liquid | 0.0851 ± 0.00094
302.4 K, 858 kPa, Liquid | 0.07303 ± 0.00081
302.43 K, 15441 kPa, Liquid | 0.08206 ± 0.00091
302.46 K, 201 kPa, Gas | 0.01371 ± 0.00046
302.51 K, 101 kPa, Gas | 0.01358 ± 0.00046
302.51 K, 273 kPa, Gas | 0.01407 ± 0.00048
302.51 K, 345 kPa, Gas | 0.01391 ± 0.00047
302.52 K, 15424 kPa, Liquid | 0.08203 ± 0.00091
302.61 K, 10265 kPa, Liquid | 0.07929 ± 0.00088
302.67 K, 5319 kPa, Liquid | 0.07625 ± 0.00085
302.68 K, 15424 kPa, Liquid | 0.08166 ± 0.00091
302.74 K, 270 kPa, Gas | 0.01405 ± 0.00048
302.77 K, 10264 kPa, Liquid | 0.079 ± 0.00087
302.78 K, 847 kPa, Liquid | 0.07298 ± 0.00081
302.8 K, 868 kPa, Liquid | 0.07244 ± 0.00082
302.84 K, 5317 kPa, Liquid | 0.07599 ± 0.00085
302.84 K, 21005 kPa, Liquid | 0.08503 ± 0.00093
302.86 K, 345 kPa, Gas | 0.01388 ± 0.00047
302.91 K, 15440 kPa, Liquid | 0.08218 ± 0.0009
302.94 K, 321 kPa, Gas | 0.01444 ± 0.00049
302.99 K, 267 kPa, Gas | 0.01402 ± 0.00047
303 K, 21003 kPa, Liquid | 0.08496 ± 0.00093
303.03 K, 15420 kPa, Liquid | 0.08154 ± 0.00091
303.06 K, 201 kPa, Gas | 0.01387 ± 0.00047
303.09 K, 515 kPa, Gas | 0.01405 ± 0.00048
303.1 K, 443 kPa, Gas | 0.01398 ± 0.00047
303.22 K, 15419 kPa, Liquid | 0.08081 ± 0.00089
303.24 K, 345 kPa, Gas | 0.01392 ± 0.00047
303.3 K, 101 kPa, Gas | 0.01415 ± 0.00048
303.42 K, 515 kPa, Gas | 0.01408 ± 0.00048
303.44 K, 443 kPa, Gas | 0.01405 ± 0.00048
303.46 K, 201 kPa, Gas | 0.01405 ± 0.00048
303.5 K, 21000 kPa, Liquid | 0.08483 ± 0.00093
303.63 K, 345 kPa, Gas | 0.01394 ± 0.00047
303.77 K, 515 kPa, Gas | 0.01408 ± 0.00048
303.8 K, 441 kPa, Gas | 0.01404 ± 0.00048
303.82 K, 515 kPa, Gas | 0.01409 ± 0.00048
303.89 K, 201 kPa, Gas | 0.01411 ± 0.00048
304.06 K, 345 kPa, Gas | 0.01397 ± 0.00047
304.14 K, 515 kPa, Gas | 0.01407 ± 0.00048
304.18 K, 102 kPa, Gas | 0.01422 ± 0.00048
304.18 K, 441 kPa, Gas | 0.01406 ± 0.00048
304.34 K, 201 kPa, Gas | 0.01397 ± 0.00047
304.53 K, 514 kPa, Gas | 0.01408 ± 0.00048
304.57 K, 442 kPa, Gas | 0.01401 ± 0.00047
304.57 K, 514 kPa, Gas | 0.0141 ± 0.00048
304.66 K, 101 kPa, Gas | 0.0142 ± 0.00048
311.41 K, 326 kPa, Gas | 0.01522 ± 0.00051
311.43 K, 200 kPa, Gas | 0.01495 ± 0.0005
311.44 K, 102 kPa, Gas | 0.01483 ± 0.0005
311.61 K, 325 kPa, Gas | 0.01511 ± 0.00051
311.65 K, 200 kPa, Gas | 0.01482 ± 0.0005
311.67 K, 102 kPa, Gas | 0.01465 ± 0.00049
311.83 K, 325 kPa, Gas | 0.01504 ± 0.00051
311.89 K, 200 kPa, Gas | 0.0147 ± 0.0005
311.91 K, 101 kPa, Gas | 0.01455 ± 0.00049
312.06 K, 325 kPa, Gas | 0.015 ± 0.001
312.14 K, 200 kPa, Gas | 0.01462 ± 0.00049
312.16 K, 101 kPa, Gas | 0.01449 ± 0.00049

Settings | thermal conductivity [W/m/K]
303.15 K, Liquid | 0.07268 ± 0.00049
